In patent US20240226106A1, “INHIBITORS OF PLASMA KALLIKREIN” (SHIRE HUMAN GENETIC THERAPIES, INC., priority 2021, published 2024):

Target: human activated kallikrein enzyme (Homo sapiens, UniProt P03952)
Experiment: Inhibition of human activated plasma kallikrein, fluorogenic peptide substrate (PFR-AMC), 500 pM enzyme format
Assay type: biochemical
Settings: 500 pM activated kallikrein, 30 min preincubation, 10 min reaction, room temperature, read-out: Primary Dose Response Assay: Average EC50
Procedure: Compounds were evaluated for inhibition of the human activated kallikrein enzyme in two formats of an assay employing a fluorogenic peptide substrate. In one assay format, the concentrations of reagents were as follows: 20 mM Tris pH 7.5, 1 mM EDTA, 150 mM sodium chloride, 0.1% PEG-400, 0.1% Triton X-100, 500 pM activated kallikrein enzyme, […] Pro-Phe-Arg-7-amido-4-methylcoumarin (PFR-AMC) substrate. Prior to reaction initiation with substrate, enzyme and inhibitors were preincubated for 30 min at room temperature. After initiation with substrate, reactions were incubated for 10 min at room temperature and fluorescence emission at 460 nm from 380 nm excitation measured with a microplate reader. In another assay format, the concentrations of reagents were as follows: 20 mM Tris pH 7.5, 1 mM EDTA, 150 mM sodium chloride, 0.1% PEG-400, 0.1% Triton X-100, 5 pM activated kallikrein enzyme, 300 uM PFR-AMC substrate. Prior to reaction initiation with substrate, enzyme and inhibitors were preincubated for 30 min at room temperature. After initiation with substrate, reactions were incubated for 18 hr at room temperature and fluorescence emission at 460 nm from 380 nm excitation measured with a microplate reader.

human activated kallikrein enzyme, sequence (P03952 391-638 limits assumed): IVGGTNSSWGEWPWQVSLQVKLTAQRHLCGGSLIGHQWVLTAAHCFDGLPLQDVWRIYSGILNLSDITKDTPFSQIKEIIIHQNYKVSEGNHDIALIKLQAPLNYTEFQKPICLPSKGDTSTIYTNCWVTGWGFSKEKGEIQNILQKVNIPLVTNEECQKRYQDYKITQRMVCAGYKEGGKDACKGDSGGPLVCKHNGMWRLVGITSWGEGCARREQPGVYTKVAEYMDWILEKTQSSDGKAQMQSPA
human activated kallikrein enzyme, sequence (P03952 20-390 partner limits assumed): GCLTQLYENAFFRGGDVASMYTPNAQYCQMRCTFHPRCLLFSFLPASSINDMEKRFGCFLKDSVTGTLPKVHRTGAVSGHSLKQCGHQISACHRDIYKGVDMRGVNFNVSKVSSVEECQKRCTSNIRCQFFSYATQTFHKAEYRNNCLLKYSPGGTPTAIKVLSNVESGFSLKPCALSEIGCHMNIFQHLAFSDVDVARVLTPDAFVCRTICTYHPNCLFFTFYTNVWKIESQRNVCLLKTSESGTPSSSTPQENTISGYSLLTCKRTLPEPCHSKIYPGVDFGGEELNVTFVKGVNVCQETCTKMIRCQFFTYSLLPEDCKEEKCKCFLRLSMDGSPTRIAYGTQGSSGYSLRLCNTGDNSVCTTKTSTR

EC50 | SMILES
> 500 nM | O=C(Nc1cc(OCc2ccc(Cn3cccn3)cc2)cnn1)[C@H]1C[C@@H]1c1cncc(Cl)c1 (racemic) [Example 1, rac-(1S*,2S*)—N-(5-((4-((1H-pyrazol-1-yl)methyl)benzyl)oxy)pyridazin-3-yl)-2-(5-chloropyridin-3-yl)cyclopropane-1-carboxamide]
> 500 nM | O=C(Nc1cc(OCc2csc(-c3ccccc3)n2)cnn1)[C@H]1C[C@@H]1c1cccc(Cl)c1 (racemic) [Example 2, rac-(1S*,2S*)-2-(3-chlorophenyl)-N-(5-((2-phenylthiazol-4-yl)methoxy)pyridazin-3-yl)cyclopropane-1-carboxamide]
> 500 nM | O=C(Nc1cc(OCc2ccc(Cn3ccc(C4CC4)n3)cc2)cnn1)[C@H]1C[C@@H]1c1cccc(Cl)c1 (racemic) [Example 4, rac-(1S*,2S*)-2-(3-chlorophenyl)-N-(5-((4-((3-cyclopropyl-1H-pyrazol-1-yl)methyl)benzyl)oxy)pyridazin-3-yl)cyclopropane-1-carboxamide]
> 500 nM | O=C(Nc1cc(OCc2ccc(Cn3cccn3)cc2)cnn1)[C@H]1C[C@@H]1c1cccnc1Cl (racemic) [Example 5, rac-(1S*,2S*)—N-(5-((4-((1H-pyrazol-1-yl)methyl)benzyl)oxy)pyridazin-3-yl)-2-(2-chloropyridin-3-yl)cyclopropane-1-carboxamide]
> 500 nM | O=C(Nc1cc(OCc2ccc(Cn3cccn3)cc2)cnn1)[C@H]1C[C@@H]1c1cn[nH]c1 (racemic) [Example 6, rac-(1S*,2S*)—N-(5-((4-((1H-pyrazol-1-yl)methyl)benzyl)oxy)pyridazin-3-yl)-2-(1H-pyrazol-4-yl)cyclopropane-1-carboxamide]
25 to 500 nM | Nc1ncccc1[C@H]1C[C@@H]1C(=O)Nc1cc(OCc2ccc(Cn3cccn3)cc2)cnn1 (racemic) [Example 8, rac-(1S*,2S*)—N-(5-((4-((1H-pyrazol-1-yl)methyl)benzyl)oxy)pyridazin-3-yl)-2-(2-aminopyridin-3-yl)cyclopropane-1-carboxamide]
> 500 nM | O=C(Nc1cn(Cc2ccc(Cn3cccn3)cc2)cn1)[C@H]1C[C@@H]1c1cccc(Cl)c1 (racemic) [Example 9, rac-(1S*,2S*)—N-(1-(4-((1H-pyrazol-1-yl)methyl)benzyl)-1H-imidazol-4-yl)-2-(3-chlorophenyl)cyclopropane-1-carboxamide]
> 500 nM | O=C(Nc1cnn(Cc2ccc(Cn3cccn3)cc2)c1)[C@H]1C[C@@H]1c1cccc(Cl)c1 (racemic) [Example 10, rac-(1S*,2S*)—N-(1-(4-((1H-pyrazol-1-yl)methyl)benzyl)-1H-pyrazol-4-yl)-2-(3-chlorophenyl)cyclopropane-1-carboxamide]
> 500 nM | Cc1cnn(-c2cc(COc3cnnc(NC(=O)[C@H]4C[C@@H]4c4cccc(Cl)c4)c3)ccn2)c1 (racemic) [Example 11, rac-(1S*,2S*)-2-(3-chlorophenyl)-N-(5-((2-(4-methyl-1H-pyrazol-1-yl)pyridin-4-yl)methoxy)pyridazin-3-yl)cyclopropanecarboxamide]
> 500 nM | O=C(Nc1cc(OCc2ccc(-n3ccnc3)cc2)cnn1)[C@H]1C[C@@H]1c1cccc(Cl)c1 (racemic) [Example 12, rac-(1S*,2S*)—N-(5-((4-(1H-imidazol-1-yl)benzyl)oxy)pyridazin-3-yl)-2-(3-chlorophenyl)cyclopropane-1-carboxamide]
> 500 nM | O=C(Nc1cc(OCc2ccc(-c3ncc[nH]3)cc2)cnn1)[C@H]1C[C@@H]1c1cccc(Cl)c1 (racemic) [Example 13, rac-(1S*,2S*)—N-(5-((4-(1H-imidazol-2-yl)benzyl)oxy)pyridazin-3-yl)-2-(3-chlorophenyl)cyclopropane-1-carboxamide]
< 2.5 nM | O=C(Nc1cc(NCc2ccc(Cn3ccccc3=O)cc2)cnn1)[C@H]1C[C@@H]1c1cccc(Cl)c1 (racemic) [Example 14, rac-(1S*,2S*)-2-(3-chlorophenyl)-N-(5-((4-((2-oxopyridin-1 (2H)-yl)methyl)benzyl)amino)pyridazin-3-yl)cyclopropane-1-carboxamide]
2.5 to 25 nM | O=C(Nc1cc(NCc2ccc(Cn3cc(Cl)ccc3=O)cc2)cnn1)[C@H]1C[C@@H]1c1cccc(Cl)c1 (racemic) [Example 17, rac-(1S*,2S*)—N-(5-((4-((5-chloro-2-oxopyridin-1 (2H)-yl)methyl)benzyl)amino)pyridazin-3-yl)-2-(3-chlorophenyl)cyclopropane-1-carboxamide]
2.5 to 25 nM | O=C(Nc1cc(OCc2ccc(Cn3cccn3)cc2)cnn1)[C@H]1C[C@@H]1c1cccc(Cl)c1 (racemic) [Example 18, rac-(1S*,2S*)—N-(5-((4-((1H-pyrazol-1-yl)methyl)benzyl)oxy)pyridazin-3-yl)-2-(3-chlorophenyl)cyclopropane-1-carboxamide]
> 500 nM | O=C(Nc1cc(NCc2ccc(Cn3ccccc3=O)cc2)cnn1)[C@H]1C[C@H]1c1cccc(Cl)c1 (racemic) [Example 19, rac-(1R*,2S*)-2-(3-chlorophenyl)-N-(5-((4-((2-oxopyridin-1 (2H)-yl)methyl)benzyl)amino)pyridazin-3-yl)cyclopropane-1-carboxamide]
> 500 nM | O=C(Nc1cc(C2(c3ccc(Cn4cc(Cl)ccc4=O)cc3)CC2)cnn1)[C@H]1C[C@@H]1c1cccc(Cl)c1 (racemic) [Example 20, rac-(1S*,2S*)—N-(5-(1-(4-((5-chloro-2-oxopyridin-1 (2H)-yl)methyl)phenyl)cyclopropyl)pyridazin-3-yl)-2-(3-chlorophenyl)cyclopropane-1-carboxamide]
> 500 nM | O=C(Nc1cc(Cc2ccc3ncc(C4CC4)cc3c2)ncn1)[C@H]1C[C@@H]1c1cccc(Cl)c1 (racemic) [Example 21, rac-(1S*,2S*)-2-(3-chlorophenyl)-N-(6-((3-cyclopropylquinolin-6-yl)methyl)pyrimidin-4-yl)cyclopropane-1-carboxamide]
2.5 to 25 nM | N#Cc1ccc(Cl)cc1[C@H]1C[C@@H]1C(=O)Nc1cc(NCc2nc3ccc(C4CC4)cn3n2)ncn1 (racemic) [Example 24, rac-(1S*,2S*)-2-(5-chloro-2-cyanophenyl)-N-(6-(((6-cyclopropyl-[1,2,4]triazolo[1,5-a]pyridin-2-yl)methyl)amino)pyrimidin-4-yl)cyclopropane-1-carboxamide]
2.5 to 25 nM | N#Cc1ccc(Cl)cc1[C@H]1C[C@@H]1C(=O)Nc1cc(NCc2nc3ccc(C4CC4)nn3n2)ncn1 (racemic) [Example 27, rac-(1S*,2S*)-2-(5-chloro-2-cyanophenyl)-N-(6-(((6-cyclopropyl-[1,2,4]triazolo[1,5-b]pyridazin-2-yl)methyl)amino)pyrimidin-4-yl)cyclopropane-1-carboxamide]
< 2.5 nM | N#Cc1ccc(Cl)cc1[C@H]1C[C@@H]1C(=O)Nc1cc(NCc2nc3ccc(C4CC4)cn3n2)ccn1 (racemic) [Example 30, rac-(1S*,2S*)-2-(5-chloro-2-cyanophenyl)-N-(4-(((6-cyclopropyl-[1,2,4]triazolo[1,5-a]pyridin-2-yl)methyl)amino)pyridin-2-yl)cyclopropane-1-carboxamide]
> 500 nM | Cc1ccnc([C@H]2C[C@@H]2C(=O)Nc2cc(N3C[C@@H](O)C[C@H]3c3ccc(N4CC5CC5C4)nc3)ncn2)n1 (mixture of isomers) [Example 70, rac-(1S*,2S*)—N-(6-((2S*,4S)-2-(6-(3-azabicyclo[3.1.0]hexan-3-yl)pyridin-3yl)-4-hydroxypyrrolidin-1-yl)pyrimidin-4-yl)-2-(4-methylpyrimidin-2-yl)cyclopropane-1-carboxamide]
2.5 to 25 nM | Cc1ccnc([C@H]2C[C@@H]2C(=O)Nc2cc(NCc3nc4ncc(C5CC5)cn4n3)ncn2)n1 (racemic) [Example 78, rac-(1S*,2S*)—N-(6-(((6-cyclopropyl-[1,2,4]triazolo[1,5-a]pyrimidin-2-yl)methyl)amino)pyrimidin-4-yl)-2-(4-methylpyrimidin-2-yl)cyclopropane-1-carboxamide]
2.5 to 25 nM | CC(Oc1cnnc(NC(=O)[C@H]2C[C@@H]2c2cccc(Cl)c2)c1)c1ccc(Cn2cccn2)cc1 (relative stereo) [Example 3, rac-(1S*,2S*)-N-(5-(1-(4-((1H-pyrazol-1-yl)methyl)phenyl)ethoxy)pyridazin-3-yl)-2-(3-chlorophenyl)cyclopropane-1-carboxamide]
2.5 to 25 nM | Cc1ccnc([C@H]2C[C@@H]2C(=O)Nc2cc(N3C[C@@H](O)CC3c3ccc(N4CC5CC5C4)nc3)ncn2)n1 (relative stereo) [Example 69, rac-(1S*,2S*)—N-(6-((4S)-2-(6-(3-azabicyclo[3.1.0]hexan-3-yl)pyrin-3-yl)-4-hydroxypyrrolidin-1-yl)pyrimidin-4-yl)-2-(4-methylpyrimidin-2-yl)cyclopropane-1-carboxamide]
25 to 500 nM | Cc1ccnc([C@H]2C[C@@H]2C(=O)Nc2cc(N3C[C@@H](O)C[C@@H]3c3cn4cc(C5CC5)cnc4n3)ncn2)c1F (relative stereo) [Example 76, rac-(1S*,2S*)—N-(6-((2R,4S)-2-(6-cyclopropylimidazo[1,2-a]pyrimidin-2-yl)-4-hydroxypyrrolidin-1-yl)pyrimidin-4-yl)-2-(3-fluoro-4-methylpyridin-2-yl)cyclopropane-1-carboxamide]
